Data reported in patent US20070059294A1, “Therapeutiv preparation for hematopoietic disease” (priority 2003, published 2007).

Key:
Type in all cases: cell-based, mouse
syno^−/− MEFs [1] = experiment: DNA fragmentation, cell death detection ELISA; conditions: indicated doses of stimuli, FIG. 5B, p<0.01
Description: (§1) (A) MEFs derived from syno^+/+ and syno^−/− mice were treated with various apoptotic stimuli, including anti-Fas monoclonal antibodies (1μg/ml for 48 hours), X-irradiation (6 Gy for 72 hours), thapsigargin (1 μM for 48 hours) and tunicamycin (10 ng/ml for 48 hours), or untreated (−), in low serum (1%FCS) medium. Apoptotic cells were detected by TUNEL analysis. (B) syno^+/+ and syno^−/− MEFs were treated with indicated dose of stimuli. Apoptosis was measured by quantitation of DNA fragmentation using the cell death detection ELISA method (Boehringer Mannheim). *p<0.01. The number of apoptotic syno^−/− MEFs was higher in cultures treated with thapsigargin and tunicamycin compared with the respective syno^+/+ MEFs. (C) syno^+/+ and syno^−/− MEFs were infected with adenovirus vector (100 moi) carrying LacZ(−) or synoviolin gene(+), then treated with the same aforementioned agents. In syno^−/− MEFs, ER-stress induced apoptosis was rescued by infection with synoviolin.

syno^−/− MEFs [2] = experiment: TUNEL apoptosis assay of MEFs treated with apoptotic stimuli; conditions: thapsigargin 1 μM 48 h, tunicamycin 10 ng/ml 48 h; for proportion of apoptotic (TUNEL-positive) cells: syno^−/− MEFs, low serum (1% FCS), anti-Fas 1 μg/ml 48 h
Description: (§2) Apoptosis can be induced through several pathways. To identify the apoptotic pathway that describes Synoviolin involvement, mouse embryonic fibroblasts (MEFs) isolated from syno^−/− and wild-type mice were treated in vitro with the following four apoptotic stimuli, monoclonal anti-Fas antibodies (Abs), gamma-irradiation, tunicamycin (N-glycosylation inhibitor), and thapsigargin (Ca^2-ATPase inhibitor). Under control conditions, the proportion of syno^−/− MEF apoptotic cells was higher (16±4%) than MEF wild-type (6±2%, FIG. 5A). […] Moreover, the sensitivity against ER stress-induced agents was increased in a dose-dependent fashion (FIG. 5B).
(§3) Tissues were prepared as described above. Conditioned culture cells were fixed in 10% formalin for 15 minutes and attached to APS-coated slide glasses. These specimens were subjected to TUNEL assay. TUNEL assay was performed according to the protocol provided by the manufacturer (Apoptosis in situ detection kit; Wako, Osaka, Japan).
(§4) MEFs were isolated from E10.5 embryos of syno^−/− and wild-type mice by trypsin digestion after removal of the head and internal organs. Isolated cells were cultured in Dulbecco's modified Eagle's medium containing 20% fetal calf serum (FCS).
as §1

wild-type MEFs = experiment: as above; conditions: low serum (1% FCS), anti-Fas 1 μg/ml 48 h, thapsigargin 1 μM 48 h, tunicamycin 10 ng/ml 48 h
Description: as §2, §3, §4, §1

Compound | number of apoptotic syno^−/− MEFs compared with the respective syno^+/+ MEFs (syno^−/− MEFs [1]) | proportion of apoptotic (TUNEL-positive) cells (syno^−/− MEFs [2]) [%] | increase in number of TUNEL-positive syno^−/− MEFs compared with wild-type MEFs (syno^−/− MEFs [2]) [fold] | proportion of apoptotic (TUNEL-positive) cells (wild-type MEFs) [%]
C/C=C(/C)C(=O)O[C@H]1C(C)=C2[C@H]([C@@H]1OC(=O)CCCCCCC)[C@@](C)(OC(C)=O)C[C@H](OC(=O)CCC)[C@@]1(O)[C@H]2OC(=O)[C@@]1(C)O [thapsigargin] | higher | 90±1 | 2.4 | 38±7
tunicamycin | higher | 56±3 | 1.7 | 33±7
